Assay results: US9226501B2, “Pesticidal compositions and processes related thereto” (Dow AgroSciences LLC, priority 2012, dated 2016)

Assays:
Type in all cases: in vivo
[1] = system: green peach aphid (GPA) (Myzus persicae); assay: Bioassay on green peach aphid (GPA), foliar spray on cabbage seedlings; conditions: 72 h, corrected % control (Abbott), 200 ppm spray on cabbage seedlings, three days, read-out: GPA Rating
Protocol: Certain molecules disclosed in this document were tested against GPA using procedures described in the following example. In the reporting of the results, the “GPA Rating Table” was used (See Table Section). Cabbage seedlings grown in 3-inch pots, with 2-3 small (3-5 cm) true leaves, were used as test substrate. The seedlings were infested with 20-50 GPA (wingless adult and nymph stages) one day prior to chemical application. Four pots with individual seedlings were used for each treatment. Test compounds (2 mg) were dissolved in 2 mL of acetone/MeOH (1:1) solvent, forming stock solutions of 1000 ppm test compound. The stock solutions were diluted 5× with 0.025% Tween 20 in water to obtain the solution at 200 ppm test compound. A hand-held aspirator-type sprayer was used for spraying a solution to both sides of […] leaves until runoff. Reference plants (solvent check) were sprayed with the diluent only containing 20% by volume of acetone/MeOH (1:1) solvent. Treated plants were held in a holding room for three days at approximately 25° C. and ambient relative humidity (RH) prior to grading. Evaluation was conducted by counting the number of live aphids per plant under a microscope. Percent Control was measured by using Abbott's correction formula (W. S. Abbott, “A Method of Computing the Effectiveness of an Insecticide” J. Econ. Entomol. 18 (1925), pp. 265-267) as follows. […]

[2] = system: Beet Armyworm (BAW) (spodoptera exigua); assay: Bioassay on beet armyworm (BAW), 128-well diet tray assay; conditions: for pest or weed control at 50 µg/cm2: Spodoptera exigua, 168 h, % mortality, second instar larvae, 50 μg/cm^2 on artificial diet, five to seven days, 25° C., read-out: BAW Rating; for BAW Rating: Table 5, prophetic compounds subsequently exemplified, beet armyworm
Protocol: (§1) Certain molecules disclosed in this document were tested against BAW, CEW and CL using procedures described in the following examples. In the reporting of the results, the “BAW & CEW & CL Rating Table” was used (See Table Section).
Bioassays on BAW were conducted using a 128-well diet tray assay. One to five second instar BAW larvae were placed in each well (3 mL) of the diet tray that had been previously filled with 1 mL of artificial diet to which 50 μg/cm^2 of the test compound (dissolved in 50 μL of 90:10 acetone-water mixture) had been applied (to each of eight wells) and then allowed to dry. Trays were covered with a clear self-adhesive cover, and held at 25° C., 14:10 light-dark for five to seven days. Percent mortality was recorded for the larvae in each well; activity in the eight wells was then averaged. The results are indicated in the tables entitled “Table 3: Assay Results Part 1” and “Table 4: Assay Results Part 2” (See Table Section).

[3] = system: Cabbage Looper (CL) (Trichoplusia ni); assay: Bioassay on cabbage looper (CL), 128-well diet tray assay; conditions: for pest or weed control at 50 µg/cm2: Trichoplusia ni, 168 h, % mortality, second instar larvae, 50 μg/cm^2 on artificial diet, five to seven days, 25° C., read-out: CL Rating; for CL Rating: Table 5, prophetic compounds subsequently exemplified, cabbage looper
Protocol: as §1
Bioassays on CL were conducted using a 128-well diet tray assay. One to five second instar CL larvae were placed in each well (3 mL) of the diet tray that had been previously filled with 1 mL of artificial diet to which 50 μg/cm^2 of the test compound (dissolved in 50 μL of 90:10 acetone-water mixture) had been applied (to each of eight wells) and then allowed to dry. Trays were covered with a clear self-adhesive cover, and held at 25° C., 14:10 light-dark for five to seven days. Percent mortality was recorded for the larvae in each well; activity in the eight wells was then averaged. The results are indicated in the table entitled “Table 4: Assay Results Part 2” (See Table Section).

Row | SMILES | pest or weed control at 200 ppm [1] | pest or weed control at 50 µg/cm2 [2] | pest or weed control at 50 µg/cm2 [3] | BAW Rating [2] | CL Rating [3]
1 | C[C@@H](NC(=O)c1ccc(/C=C/C(c2cc(Cl)c(Cl)c(Cl)c2)C(F)(F)F)cc1I)C(=O)NCC(F)(F)F (stereo partly shown) [FA16] | 80 to 100% | 50 to 100% | 50 to 100% |  | 
2 | Cc1cc(C(/C=C/c2ccc(C(=O)N[C@H](C)C(=O)NCC(F)(F)F)c(Br)c2)C(F)(F)F)ccc1F (stereo partly shown) [P1090] |  |  |  | A (50-100) | A (50-100)
3 | O=C(CNC(=O)c1ccc(/C=C/C(c2cc(F)c(F)c(F)c2)C(F)(F)F)cc1Br)NCC(F)(F)F (stereo not shown) [P1197] |  |  |  | A (50-100) | A (50-100)
4 | C[C@@H](NC(=O)c1ccc(/C=C/C(c2ccc(F)c(F)c2F)C(F)(F)F)cc1Br)C(=O)NCC(F)(F)F (stereo partly shown) [P82] |  |  |  | A (50-100) | A (50-100)
5 | CC(C)[C@@H](NC(=O)c1ccc(/C=C/C(c2cc(Cl)c(Cl)c(Cl)c2)C(F)(F)F)cc1C(F)(F)F)C(=O)NCC(F)(F)F (stereo partly shown) [FA33] |  | 50 to 100% | 50 to 100% |  | 
6 | CC(C)[C@@H](NC(=O)c1ccc(/C=C/C(c2cc(Cl)c(Cl)c(Cl)c2)C(F)(F)F)cc1Br)C(=O)NCC(F)(F)F (stereo partly shown) [FA32] |  | 50 to 100% | 50 to 100% |  | 
7 | Cc1cc(/C=C/C(c2cc(Cl)c(Cl)c(Cl)c2)C(F)(F)F)ccc1C(=S)NCC(=S)NCC(F)(F)F (stereo not shown) [P15] |  |  |  | A (50-100) | A (50-100)
8 | CCC[C@@H](NC(=O)c1ccc(/C=C/C(c2cc(Cl)c(Cl)c(Cl)c2)C(F)(F)F)cc1Br)C(=O)NCC(F)(F)F (stereo partly shown) [FA19] |  | 50 to 100% | 50 to 100% |  | 
9 | COc1cc(C(=O)NCC(=O)NCC(F)(F)F)c(Cl)cc1/C=C/C(c1cc(Cl)c(Cl)c(Cl)c1)C(F)(F)F (stereo not shown) [FA5] |  | 50 to 100% | 50 to 100% |  | 
10 | O=C(NCC(=S)NCC(F)(F)F)c1ccc(/C=C/C(c2cc(Cl)c(F)c(Cl)c2)C(F)(F)F)cc1Br (stereo not shown) [P1864] |  |  |  | A (50-100) | A (50-100)
11 | Cc1cc(/C=C/C(c2cc(Br)cc(Br)c2)C(F)(F)F)ccc1C(=O)NCC(=O)NC(C)C(F)(F)F (stereo not shown) [P2012] |  |  |  | A (50-100) | A (50-100)
12 | CCc1cc(Cl)cc(C(/C=C/c2ccc(C(=O)N[C@H](C)C(=O)NCC(F)(F)F)c(Br)c2)C(F)(F)F)c1 (stereo partly shown) [FA31] |  | 50 to 100% | 50 to 100% |  | 
13 | CC(NC(=O)c1ccc(/C=C/C(c2cc(Cl)c(Cl)c(Cl)c2)C(F)(F)F)cc1Br)C(=O)NCCC(F)(F)F (stereo not shown) [P1631A] |  |  |  | A (50-100) | A (50-100)
14 | CSc1cc(/C=C/C(c2cc(Cl)c(F)c(Cl)c2)C(F)(F)F)ccc1C(=O)NCC(=O)NCC(F)(F)F (stereo not shown) [P12] |  |  |  | A (50-100) | A (50-100)
15 | CC(NC(=O)CNC(=O)c1ccc(/C=C/C(c2cc(Br)cc(Br)c2)C(F)(F)F)cc1C(F)(F)F)C(F)(F)F (stereo not shown) [P2011] |  |  |  | A (50-100) | A (50-100)
16 | C[C@@H](NC(=O)c1ccc(/C=C/C(c2cc(Br)cc(Br)c2)C(F)(F)F)cc1Br)C(=O)NCCF (stereo partly shown) [P2041] |  |  |  | A (50-100) | A (50-100)
17 | C[C@@H](NC(=O)c1ccc(/C=C/C(c2cc(Br)c(Cl)c(Br)c2)C(F)(F)F)cc1Br)C(=O)NCC(F)(F)F (stereo partly shown) [FA26] |  | 50 to 100% | 50 to 100% |  | 
18 | COc1c(F)cc(C(/C=C/c2ccc(C(=O)NCC(=O)NCC(F)(F)F)c(Br)c2)C(F)(F)F)cc1F (stereo not shown) [FA8] |  | 0 to 50% | 50 to 100% |  | 
19 | O=C(CNC(=O)c1ccc(/C=C/C(c2cc(Cl)c(Cl)c(Cl)c2)C(F)(F)F)cc1Cl)NCC(F)F (stereo not shown) [FA1] |  | 50 to 100% | 50 to 100% |  | 
20 | Cc1ccc(C(/C=C/c2ccc(C(=O)N[C@H](C)C(=O)NCC(F)(F)F)c(Br)c2)C(F)(F)F)cc1Cl (stereo partly shown) [P442] |  |  |  | A (50-100) | A (50-100)

Row | SMILES | pest or weed control at 200 ppm [1] | pest or weed control at 50 µg/cm2 [2] | pest or weed control at 50 µg/cm2 [3] | BAW Rating [2] | CL Rating [3]
21 | O=C(CNC(=O)c1ccc(/C=C/C(c2cc(Cl)c(F)c(Cl)c2)C(F)(F)F)cc1C(F)(F)F)NCC(F)(F)F (stereo not shown) [P1862] |  |  |  | A (50-100) | A (50-100)
22 | O=C(CNC(=O)c1ccc(/C=C/C(c2cc(Br)cc(Br)c2)C(F)(F)F)cc1Cl)NCC(F)(F)F (stereo not shown) [P1970] |  |  |  | A (50-100) | A (50-100)
23 | C[C@@H](NC(=O)c1ccc(/C=C/C(c2cc(Cl)cc(Cl)c2)C(F)(F)C(F)(F)F)cc1Br)C(=O)NCC(F)(F)F (stereo partly shown) [P1691] |  |  |  | A (50-100) | A (50-100)
24 | C[C@@H](NC(=O)c1ccc(/C=C/C(c2cccc(OC(F)(F)F)c2)C(F)(F)F)cc1Br)C(=O)NCC(F)(F)F (stereo partly shown) [P226] |  |  |  | A (50-100) | A (50-100)
25 | CC(C)(NC(=S)c1ccc(/C=C/C(c2cc(Cl)c(Cl)c(Cl)c2)C(F)(F)F)cc1Cl)C(=S)NCC(F)(F)F (stereo not shown) [FA10] |  | 0 to 50% | 0 to 50% |  | 
26 | O=C(CNC(=O)c1ccc(/C=C/C(c2cc(Cl)cc(C(F)(F)F)c2)C(F)(F)F)cc1Br)NCC(F)(F)F (stereo not shown) [P1411] |  |  |  | A (50-100) | A (50-100)
27 | CC(C)(C)CNC(=O)C(C)(C)NC(=O)c1ccc(/C=C/C(c2cc(Cl)c(Cl)c(Cl)c2)C(F)(F)F)cc1Br (stereo not shown) [FA15] |  | 50 to 100% | 50 to 100% |  | 
28 | C[C@@H](NC(=O)c1ccc(/C=C/C(c2ccc(Br)c(Br)c2)C(F)(F)F)cc1Br)C(=O)NCC(F)(F)F (stereo partly shown) [P568] |  |  |  | A (50-100) | A (50-100)
29 | C[C@@H](NC(=O)c1ccc(/C=C/C(c2cc(Cl)c(Cl)c(Cl)c2)C(F)(F)F)cc1)C(=O)NCC(F)(F)F (stereo partly shown) [P1603] |  |  |  | A (50-100) | A (50-100)
30 | C[C@@H](NC(=O)c1ccc(/C=C/C(c2cc(Cl)c(Br)c(Cl)c2)C(F)(F)F)cc1C(F)(F)F)C(=O)NCC(F)(F)F (stereo partly shown) [FA21] |  | 50 to 100% | 50 to 100% |  | 
31 | CCC[C@@H](NC(=O)c1ccc(/C=C/C(c2cc(Cl)c(Cl)c(Cl)c2)C(F)(F)F)cc1C)C(=O)NCC(F)(F)F (stereo partly shown) [FA25] |  | 50 to 100% | 50 to 100% |  | 
32 | CC(NC(=O)c1ccc(/C=C/C(c2cc(Cl)c(Cl)c(Cl)c2)C(F)(F)F)cc1C(F)(F)F)C(=O)NCC(F)F (stereo not shown) [P1613A] |  |  |  | A (50-100) | A (50-100)
33 | C[C@@H](NC(=O)c1ccc(/C=C/C(c2cc(Br)cc(Br)c2)C(F)(F)F)cc1Br)C(=O)NCCC(F)(F)F (stereo partly shown) [P2056] |  |  |  | A (50-100) | A (50-100)
34 | C[C@@H](NC(=O)c1ccc(/C=C/C(c2cc(Cl)c(Cl)c(Cl)c2)C(F)(F)C(F)(F)F)cc1Br)C(=O)NCC(F)(F)F (stereo partly shown) [P1599] |  |  |  | A (50-100) | A (50-100)
35 | Cc1cc(/C=C/C(c2cc(Cl)c(Cl)c(Cl)c2)C(F)(F)F)ccc1C(=O)NCCC(=O)NCC(F)(F)F (stereo not shown) [P1641] |  |  |  | A (50-100) | A (50-100)
36 | CC(NC(=O)CNC(=O)c1ccc(/C=C/C(c2cc(Br)cc(Br)c2)C(F)(F)F)cc1Cl)C(F)(F)F (stereo not shown) [P2010] |  |  |  | A (50-100) | A (50-100)
37 | O=C(CNC(=O)c1ccc(/C=C/C(c2cc(Cl)c(Cl)c(Cl)c2)C(F)(F)F)cc1Br)NCCC(F)(F)F (stereo not shown) [FA7] |  | 50 to 100% | 50 to 100% |  | 
38 | C[C@@H](NC(=O)c1ccc(/C=C/C(c2cc(Br)c(Cl)c(Br)c2)C(F)(F)F)cc1C(F)(F)F)C(=O)NCC(F)(F)F (stereo partly shown) [FA27] |  | 50 to 100% | 50 to 100% |  | 
39 | Cc1cc(C(/C=C/c2ccc(C(=O)N[C@H](C)C(=O)NCC(F)(F)F)c(C(F)(F)F)c2)C(F)(F)F)cc(C)c1F (stereo partly shown) [P516] |  |  |  | A (50-100) | A (50-100)
